In article PMC2807730 (Bioorganic & medicinal chemistry letters, 2009):

Columns and labels:
Clk1 = Clk1 (Homo sapiens, UniProt P49759); settings: cited from earlier work
Clk4 [1] = target: T1, Clk4 (Homo sapiens, UniProt Q9HAZ1); settings: cited from earlier work
Clk4 [2] = target: T1, Clk4; assay: bioluminescent, luciferase-based Clk4 assay
Dyrk1A = Dyrk1A (Homo sapiens, UniProt Q13627); assay: Dyrk1A inhibition; assay type: biochemical; settings: data not shown

T1 sequence (Q9HAZ1 whole entry): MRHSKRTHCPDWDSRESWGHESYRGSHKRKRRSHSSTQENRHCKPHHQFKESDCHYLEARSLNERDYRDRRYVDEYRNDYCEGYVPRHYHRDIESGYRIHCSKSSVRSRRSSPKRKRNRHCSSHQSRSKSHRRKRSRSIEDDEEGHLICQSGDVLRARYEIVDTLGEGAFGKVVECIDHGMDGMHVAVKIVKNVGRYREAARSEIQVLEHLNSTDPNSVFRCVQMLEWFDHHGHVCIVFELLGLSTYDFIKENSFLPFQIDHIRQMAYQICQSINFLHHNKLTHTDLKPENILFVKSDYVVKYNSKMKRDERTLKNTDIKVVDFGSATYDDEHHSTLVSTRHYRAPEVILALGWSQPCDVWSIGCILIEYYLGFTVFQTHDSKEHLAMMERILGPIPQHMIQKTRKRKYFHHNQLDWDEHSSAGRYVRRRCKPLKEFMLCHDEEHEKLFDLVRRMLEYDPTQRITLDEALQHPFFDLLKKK
Chain of Clk1 (P49759 whole entry): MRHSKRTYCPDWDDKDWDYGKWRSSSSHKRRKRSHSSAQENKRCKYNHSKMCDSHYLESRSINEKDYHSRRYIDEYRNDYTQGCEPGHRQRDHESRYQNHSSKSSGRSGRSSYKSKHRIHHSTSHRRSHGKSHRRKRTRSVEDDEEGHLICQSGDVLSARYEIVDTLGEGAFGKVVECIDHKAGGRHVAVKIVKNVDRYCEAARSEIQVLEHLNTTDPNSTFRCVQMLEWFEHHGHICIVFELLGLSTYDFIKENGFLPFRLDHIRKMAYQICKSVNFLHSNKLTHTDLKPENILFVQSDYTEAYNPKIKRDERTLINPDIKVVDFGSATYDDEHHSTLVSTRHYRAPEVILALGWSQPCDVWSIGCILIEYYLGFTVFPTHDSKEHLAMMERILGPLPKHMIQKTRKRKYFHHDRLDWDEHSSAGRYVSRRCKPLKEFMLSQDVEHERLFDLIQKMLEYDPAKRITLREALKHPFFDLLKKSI

Compound | IC50 values versus Clk1 (Clk1) | IC50 values versus Clk4 (Clk4 [1]) | enzyme inhibition in ATP dose response (Clk4 [2]; compound constant at 70 nM, high ATP concentrations (>200 μM), data not shown) | potency in peptide dose response (Clk4 [2]; compound constant at 70 nM, increasing dose of peptide, data not shown) | change of potency with ATP concentration (Clk4 [2]; dose response at 1, 50, 100 μM ATP (Figure 4A)) | change of potency with peptide substrate concentration (Clk4 [2]; dose response at 50, 100, 200 μM peptide (Figure 4B)) | activity versus numerous EGFR mutants (EGFR mutants) [nM] | inhibition of Dyrk1A (Dyrk1A)
CCN1/C(=C/C(C)=O)Sc2ccc(OC)cc21 [compound 1] | low-nanomolar | low-nanomolar | – | – | – | – | – | –
c1csc(CNc2ncnc3ccc(-c4ccc5c(c4)OCO5)cc23)c1 [compound 4] | – | – | sharp decline in enzyme inhibition | did not effect the potency | loss in potency when ATP levels rise | no affect on the compound potency | > 250 | potent inhibitors
